Measurements from US10544150B2, “NK-3 receptor selective antagonist compounds, pharmaceutical composition and methods for use in NK-3 receptors mediated disorders” (Ogeda SA, priority 2010, dated 2020).

How the values were obtained:
human NK-3 receptor = human NK-3 receptor (Homo sapiens (Human), UniProt P29371); experiment: 3H-SB222200 binding competition assay with human NK-3 receptor; conditions: 3H-SB222200 displacement, CHO cell membranes expressing human NK3 receptor; read-out: Ki range
Method in brief: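 Radioligand displacement: 5 nM tritiated SB222200 competed by varying compound concentrations on recombinant CHO membranes bearing human NK3, buffer pH 7.4 with HEPES, NaCl, CaCl2, MgCl2, BSA and saponin. Filter-bound radioactivity quantified; calculated Ki given as ranges from +++ (<500 nM) to # (>5 μM).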

[1] = system: circulating levels of luteinizing hormone (LH); experiment: Castrated male rat model, circulating levels of luteinizing hormone (LH); assay type: in vivo; conditions: castrated male SD rats, single intravenous dose (156 and 144: 10 mg/kg; 71: 15 mg/kg; 114: 20 mg/kg), 60 min post dosing (156 also 120 min), vs. baseline
[2] = system: circulating levels of testosterone; experiment: Gonad-intact adult male rat, circulating levels of testosterone; assay type: in vivo; conditions: gonad-intact male SD rats, single intravenous 20 mg/kg dose, over 420 min (AUC)
Description: Plasma testosterone levels are represented as an integrated testosterone response (AUC) over a 420 min period following dosing. […] Membrane suspensions were prepared from these cells. The following radioligand: [^125I]-His-MePhe7-Neurokinin B (PerkinElmer Cat # NEX285) was used in this assay. Binding assays were performed in a […]/1 mM CaCl2/5 mM MgCl2/0.5% BSA/10 μg/ml Saponin, at pH 7.4. Binding assays consisted of 25 μl of membrane suspension (approximately 5 μg protein/well in a 96 well plate), 50 μl of compound or reference ligand (MePhe7-Neurokinin B) at increasing concentrations (diluted in assay buffer) and 0.09 nM [^125I]-His-MePhe7-Neurokinin B. The plate was incubated 60 min at 25° C. in a water bath and then filtered over GF/C filters (Perkin Elmer, 6005174, presoaked in assay buffer without saponine for 2 h at room temperature) with a Filtration unit (Perkin Elmer). The radioactivity retained on the filters was measured by using the TopCount-NXT reader (Packard). […]

Chain of human NK-3 receptor (P29371 whole entry): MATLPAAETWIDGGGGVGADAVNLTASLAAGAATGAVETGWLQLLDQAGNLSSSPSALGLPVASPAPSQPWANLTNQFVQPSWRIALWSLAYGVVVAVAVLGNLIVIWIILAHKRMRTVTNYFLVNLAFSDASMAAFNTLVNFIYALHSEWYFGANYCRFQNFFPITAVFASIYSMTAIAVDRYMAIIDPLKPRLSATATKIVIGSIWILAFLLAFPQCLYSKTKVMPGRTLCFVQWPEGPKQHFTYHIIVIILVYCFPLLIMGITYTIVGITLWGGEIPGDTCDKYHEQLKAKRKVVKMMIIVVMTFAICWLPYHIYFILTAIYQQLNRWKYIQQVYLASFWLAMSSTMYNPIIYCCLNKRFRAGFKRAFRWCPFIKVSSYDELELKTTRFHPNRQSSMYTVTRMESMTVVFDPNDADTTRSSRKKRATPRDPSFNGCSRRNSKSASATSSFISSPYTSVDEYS

Row | Structure (SMILES) | Ki (human NK-3 receptor) | effect on LH serum levels [1] | effect on plasma testosterone levels [2]
1 | C[C@@H]1c2nnc(-c3csc(-c4ccc(F)cc4)n3)n2CCN1C(=O)c1ccc(F)cc1 [Compound 71, (R)-(4-fluorophenyl)(3-(2-(4-fluorophenyl)thiazol-4-yl)-8-methyl-5,6-dihydro-[1,2,4]triazolo[4,3-a]pyrazin-7(8H)-yl)methanone] | < 500 nM | significantly suppressed GnRH-mediated elevation of LH | 
2 | C[C@@H]1c2nnc(-c3csc(-c4ccc(F)cc4F)n3)n2CCN1C(=O)c1ccc(-c2cccs2)cc1 [Compound 156, (R)-(3-(2-(2,4-difluorophenyl)thiazol-4-yl)-8-methyl-5,6-dihydro-[1,2,4]triazolo[4,3-a]pyrazin-7(8H)-yl)(4-(thiophen-2-yl)phenyl)methanone] | < 500 nM | significantly suppressed GnRH-mediated elevation of LH | significantly suppressed plasma testosterone levels
3 | C[C@@H]1c2nnc(-c3ccc4ccccc4n3)n2CCN1C(=O)c1ccc(-c2cccs2)cc1 [Compound 144, (R)-(8-methyl-3-(quinolin-2-yl)-5,6-dihydro-[1,2,4]triazolo[4,3-a]pyrazin-7(8H)-yl)(4-(thiophen-2-yl)phenyl)methanone] | < 500 nM | significantly suppressed GnRH-mediated elevation of LH | 
4 | CC1c2nnc(-c3coc(-c4ccccc4)n3)n2CCN1C(=O)c1ccc(-c2cccs2)cc1 (stereo not drawn) [Compound 114, (8-methyl-3-(2-phenyloxazol-4-yl)-5,6-dihydro-[1,2,4]triazolo[4,3-a]pyrazin-7(8H)-yl)(4-(thiophen-2-yl)phenyl)methanone] | < 500 nM | significantly suppressed GnRH-mediated elevation of LH | 
5 | O=C(c1ccc(-c2ccc(F)cc2)cc1)N1CCn2c(nnc2-c2nc(-c3ccc(F)cc3)no2)C1 [Compound 205, (4′-fluoro-[1,1′-biphenyl]-4-yl)(3-(3-(4-fluorophenyl)-1,2,4-oxadiazol-5-yl)-5,6-dihydro-[1,2,4]triazolo[4,3-a]pyrazin-7(8H)-yl)methanone] | 500 to 1000 nM |  | 
6 | Cc1ccsc1-c1ccc(C(=O)N2CCn3c(-c4csc(-c5ccc(F)cc5)n4)nnc3C2C)cc1 (stereo not drawn) [Compound 268, (3-(2-(4-fluorophenyl)thiazol-4-yl)-8-methyl-5,6-dihydro-[1,2,4]triazolo[4,3-a]pyrazin-7(8H)-yl)(4-(3-methylthiophen-2-yl)phenyl)methanone] | < 500 nM |  | 
7 | O=C(c1ccc(-c2cccs2)cc1)N1CCn2c(nnc2-c2nc(-c3ccc(F)cc3)no2)C1 [Compound 176, (3-(3-(4-fluorophenyl)-1,2,4-oxadiazol-5-yl)-5,6-dihydro-[1,2,4]triazolo[4,3-a]pyrazin-7(8H)-yl)(4-(thiophen-2-yl)phenyl)methanone] | < 500 nM |  | 
